A short description of data set [1]: Optical properties: UV-visible spectra, fluorescence excitation and emission. The format is physicochemical. Conditions: for Stokes shift: (1/λex − 1 λem); for λem: fluorescence emission wavelength; for λex: fluorescence excitation wavelength; for HOMO-LUMO gap relative to compound 5a: inferred from UV-visible spectrum. An excerpt: The optical properties of several novel chromophores were investigated. UV-visible spectra reveal an intense absorption in the UV region for all the compounds evaluated.

A short description of data set [2]: UV absorbance and fluorescence of ribonucleoside analogues in DMSO (molar extinction coefficient, quantum yield). In kind it is physicochemical. Conditions: for Quantum yield: relative to quinine sulphate and anthracene standards. The text has this:
UV absorbance and fluorescence excitation and emission data were used to determine the molar extinction coefficient and fluorescence quantum yield of a several adenosine and guanosine ribonucleoside analogues in DMSO (see the Table below). The data acquired support the concept that the fluorescence properties of these analogues can be tuned by altering the electron-donating or electron-withdrawing R-group on the terminal phenylalkyne. Fourteen electron-donating or electron-withdrawing R-groups were coupled to purine bases at the 8-position. […] This makes the analogues extremely useful for the quantification of analogue-containing nucleic acid products in a DNA or RNA background. […] The position (ortho, meta or para) of the R-group on the phenyl ring can also be used to tune the fluorescent properties of the analogues. The ring position of the R-group has a smaller effect on the fluorescent properties of the analogues. Greater changes in the excitation/emission wavelength, molar extinction coefficient and quantum yield can be induced by changing the type of R-group (electron-donating vs. electron-withdrawing) as compared to the position of a R-group on the phenyl ring (ortho, meta or para). The quantum yields of the unphosphorylated analogues were measured relative to quinine sulphate and anthracene standards. […] This provides additional support for the idea that the purine bases can both push and pull electrons in π-conjugated systems.

The record followed here is patent US20090299049A1, “Bicyclic Compounds and Their Use” (priority 2006, published 2009).

By melting point is commonly meant the temperature of the solid-liquid transition.

For `Nc1nc2c(nc(C#Cc3ccccc3)n2[C@@H]2O[C@H](CO)[C@@H](O)[C@H]2O)c(=O)[nH]1` [Compound 5a, 8-(Phenylethynyl)guanosine], the melting point was 234 to 236 °C (dec.). In data set [1], the Stokes shift amounted to 4196 cm⁻¹, the λem is given as 438 nm and the λex is 370 nm. In data set [2], the “Wavelength at fluorescence emission maximum” value was found to be 416 nm, the “Wavelength at maximum in UV absorption” value was found to be 330 nm and the Quantum yield is given as 2.7%.

As to `Cc1ccc(C#Cc2nc3c(=O)[nH]c(N)nc3n2[C@@H]2O[C@H](CO)[C@@H](O)[C@H]2O)cc1` [Compound 5b, 8-(4′-Methylphenylethynyl)guanosine], the melting point is 222 to 226 °C (dec.). Moreover, in data set [1], the Stokes shift was 3452 cm⁻¹, the λem turned out to be 415 nm and the λex is recorded as 363 nm. In addition, in data set [2], the Molar absorption coefficient amounted to 16591 M⁻¹ cm⁻¹, the “Wavelength at fluorescence emission maximum” value is reported as 409 nm, the “Wavelength at maximum in UV absorption” value is recorded as 331 nm and the Quantum yield worked out at 3.1%.

Turning to `COc1ccc(C#Cc2nc3c(=O)[nH]c(N)nc3n2[C@@H]2O[C@H](CO)[C@@H](O)[C@H]2O)cc1` [Compound 5c, 8-(4-Methoxyphenylethynyl)guanosine], the melting point is 220 to 224 °C (dec.). In data set [1], the “UV-visible spectrum shift relative to compound 5a (parent)” value is given as “red-shifted”, the Stokes shift is 2749 cm⁻¹, the λem is 402 nm and the λex stood at 362 nm. For the same compound, the “HOMO-LUMO gap relative to compound 5a” value in data set [1] is given as “smaller HOMO-LUMO gap”. Moreover, in data set [2], the Molar absorption coefficient was 22569 M⁻¹ cm⁻¹, the “Wavelength at fluorescence emission maximum” value worked out at 398 nm, the “Wavelength at maximum in UV absorption” value was determined as 330 nm and the Quantum yield was 1.2%.

As for `CSc1ccc(C#Cc2nc3c(=O)[nH]c(N)nc3n2[C@@H]2O[C@H](CO)[C@@H](O)[C@H]2O)cc1` [Compound 5d, 8-(4-Methylsulfanylphenylethynyl)guanosine], the melting point is 214 to 216 °C (dec.). For the same compound, in data set [1], the Stokes shift is 3264 cm⁻¹, the λem stood at 426 nm and the λex is recorded as 374 nm. Also, in data set [2], the Molar absorption coefficient was found to be 19832 M⁻¹ cm⁻¹, the “Wavelength at fluorescence emission maximum” value is listed as 425 nm, the “Wavelength at maximum in UV absorption” value is reported as 343 nm and the Quantum yield is 4.5%.

Turning to `CCN(CC)c1ccc(C#Cc2nc3c(=O)[nH]c(N)nc3n2[C@@H]2O[C@H](CO)[C@@H](O)[C@H]2O)cc1` [Compound 5e, 8-(4-N,N-diethylaminephenylethynyl)guanosine], in data set [1], the “UV-visible spectrum shift relative to compound 5a (parent)” value is given as “red-shifted”, the Stokes shift is 5205 cm⁻¹, the λem was found to be 502 nm and the λex is 398 nm. Also, the “HOMO-LUMO gap relative to compound 5a” value in data set [1] is “higher HOMO-LUMO gap”. Also, in data set [2], the “Wavelength at fluorescence emission maximum” value is given as 409 nm, the “Wavelength at maximum in UV absorption” value came to 356 nm and the Quantum yield worked out at 2.1%.

Turning to `CC(=O)c1ccc(C#Cc2nc3c(=O)[nH]c(N)nc3n2[C@@H]2O[C@H](CO)[C@@H](O)[C@H]2O)cc1` [Compound 5f, 8-(4′-Acetophenonephenylethynyl)guanosine], in data set [1], the Stokes shift was determined as 6392 cm⁻¹, the λem is 532 nm and the λex was found to be 397 nm. Besides, in data set [2], the Molar absorption coefficient amounted to 19589 M⁻¹ cm⁻¹, the “Wavelength at fluorescence emission maximum” value amounted to 509 nm, the “Wavelength at maximum in UV absorption” value is listed as 364 nm and the Quantum yield is reported as 0.44%.

For the compound `Nc1nc2c(nc(C#Cc3ccc(C(F)(F)F)cc3)n2[C@@H]2O[C@H](CO)[C@@H](O)[C@H]2O)c(=O)[nH]1` [Compound 5g, 8-(4′-Trifluoromethylphenylethynyl)guanosine], the melting point is > 240 °C. Also, in data set [1], the Stokes shift amounted to 4539 cm⁻¹, the λem is 468 nm and the λex came to 386 nm. In data set [2], the “Wavelength at fluorescence emission maximum” value turned out to be 458 nm, the “Wavelength at maximum in UV absorption” value is reported as 348 nm and the Quantum yield was 0.74%.

As for `Nc1nc2c(nc(C#Cc3cccc4ccccc34)n2[C@@H]2O[C@H](CO)[C@@H](O)[C@H]2O)c(=O)[nH]1` [Compound 5h, 8-(Napthylethynyl)guanosine], in data set [1], the Stokes shift was 4604 cm⁻¹, the λem was 465 nm and the λex is listed as 383 nm. Besides, in data set [2], the Molar absorption coefficient is 15141 M⁻¹ cm⁻¹, the “Wavelength at fluorescence emission maximum” value was 467 nm, the “Wavelength at maximum in UV absorption” value was 357 nm and the Quantum yield was 5.4%.

For `Nc1ncnc2c1nc(C#Cc1ccccc1)n2[C@@H]1O[C@H](CO)[C@@H](O)[C@H]1O` [Compound 6a, 8-(Phenylethynyl)adenosine], the melting point is 168 to 170 °C (dec.). For the same compound, in data set [1], the Stokes shift was found to be 3383 cm⁻¹, the λem came out at 397 nm and the λex is given as 350 nm. Moreover, in data set [2], the “Wavelength at fluorescence emission maximum” value is reported as 398 nm, the “Wavelength at maximum in UV absorption” value was determined as 322 nm and the Quantum yield is 49%.

On to `CCN(CC)c1ccc(C#Cc2nc3c(N)ncnc3n2[C@@H]2O[C@H](CO)[C@@H](O)[C@H]2O)cc1` [Compound 6e, 8-(4-N,N-Diethylaminephenylethynyl)adenosine], for which, in data set [1], the Stokes shift is 4747 cm⁻¹, the λem is listed as 506 nm and the λex came out at 408 nm. The “Absorption maxima shift relative to compound 7a (parent)” value in data set [1] (compared with the guanosine series) is on record as “more significant differences”. Besides, in data set [2], the “Wavelength at fluorescence emission maximum” value amounted to 441 nm, the “Wavelength at maximum in UV absorption” value stood at 365 nm and the Quantum yield amounted to 8.4%.

With `CC(=O)c1ccc(C#Cc2nc3c(N)ncnc3n2[C@@H]2O[C@H](CO)[C@@H](O)[C@H]2O)cc1` [Compound 6f, 8-(4′-Acetophenonephenylethynyl)adenosine], in data set [1], the Stokes shift is 6454 cm⁻¹, the λem is recorded as 493 nm and the λex came to 374 nm. In data set [2], the Molar absorption coefficient worked out at 19639 M⁻¹ cm⁻¹, the “Wavelength at fluorescence emission maximum” value came to 493 nm, the “Wavelength at maximum in UV absorption” value came out at 343 nm and the Quantum yield worked out at 4.9%.

Consider `Nc1ncnc2c1nc(C#Cc1cccc3ccccc13)n2[C@@H]1O[C@H](CO)[C@@H](O)[C@H]1O` [Compound 6h, 8-(Napthylethynyl)adenosine], for which, in data set [1], the Stokes shift was 3394 cm⁻¹, the λem came to 431 nm and the λex was 376 nm. In data set [2], the Molar absorption coefficient amounted to 22970 M⁻¹ cm⁻¹, the “Wavelength at fluorescence emission maximum” value is reported as 430 nm, the “Wavelength at maximum in UV absorption” value is 349 nm and the Quantum yield came out at 49%.
